In patent US20100298141A1, “SUBSTITUTED PYRIDINE N-OXIDE HERBICIDES” (E. I. DU PONT DE NEMOURS AND COMPANY, priority 2007, published 2010):

Legend:
giant foxtail [1] = assay: Test A pre-/postemergence greenhouse test; format: in vivo, Setaria faberi; conditions: for Plant response rating, Foxtail, Giant: 0 to 100 scale where 0 is no effect and 100 is complete control; for Foxtail, Giant plant response rating: 0 to 100 scale
Method in brief: (§1)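 Sowing in loam/sand; same-day pre (directed soil spray) and post (foliar, 1–2 leaf, 2–10 cm) treatment with surfactant-containing non-phytotoxic solvent formulation; ~10 days in greenhouse; eye-scored injury against untreated plants.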

velvetleaf = assay: Test A pre-/postemergence greenhouse test; format: in vivo, Abutilon theophrasti; conditions: for Plant response rating, Velvetleaf: 0 to 100 scale where 0 is no effect and 100 is complete control; for Velvetleaf plant response rating: 0 to 100 scale
Method in brief: as §1

wheat = assay: Test A pre-/postemergence greenhouse test; format: in vivo, Triticum aestivum; conditions: for Plant response rating, Wheat: 0 to 100 scale where 0 is no effect and 100 is complete control; for Wheat plant response rating: 0 to 100 scale
Method in brief: as §1

corn = assay: Test A pre-/postemergence greenhouse test; format: in vivo, Zea mays; conditions: for Plant response rating, Corn: 0 to 100 scale where 0 is no effect and 100 is complete control; for Corn plant response rating: 0 to 100 scale
Method in brief: as §1

downy brome = assay: Test C pre-/postemergence test; format: in vivo, Bromus tectorum
From the text: (§2) Seeds of plant species selected from blackgrass (Alopecurus myosuroides), downy brome (Bromus tectorum), green foxtail (Setaria viridis), Italian ryegrass (Lolium multiflorum), wheat (Triticum aestivum), wild oat (Avena fatua), catchweed bedstraw (Galium aparine), Russian thistle (Salsola kali), […] (Cynodon dactylon), Surinam grass (Brachiaria decumbens), cocklebur (Xanthium strumarium), corn (Zea mays), crabgrass (Digitaria sanguinalis), woolly cupgrass (Eriochloa villosa), giant foxtail (Setaria faberii), Goosegrass (Eleusin indica), johnsongrass (Sorghum halepense), kochia (Kochia scoparia), lambsquarters (Chenopodium album), morningglory (Ipomoea coccinea), eastern black nightshade (Solanum ptycanthum), yellow nutsedge (Cyperus esculentus), pigweed (Amaranthus retroflexus), common ragweed (Ambrosia elation), soybean (Glycine max), common (oilseed) sunflower (Helianthus annuus), and velvetleaf (Abutilon theophrasti) were planted and treated preemergence with test chemicals formulated in a non-phytotoxic solvent mixture which included a surfactant. At the same time, plants selected from these crop and weed species and also winter barley (Hordeum vulgare), canarygrass (Phalaris minor), and chickweed (Stellaria media) were treated with postemergence applications of some of the test chemicals formulated in the same manner. Plants ranged in height from 2 to 18 cm (1- to 4-leaf stage) for postemergence treatments. […] At time of treatment, test pots were flooded to 3 cm above the soil surface, treated by application of test compounds directly to the paddy water, and then maintained at that water depth for the duration of the test. […] A dash (-) response means no test result.

bermudagrass = assay: Test C pre-/postemergence test; format: in vivo, Cynodon dactylon
From the text: as §2

Surinam grass = assay: Test C pre-/postemergence test; format: in vivo, Brachiaria decumbens
From the text: as §2

crabgrass = assay: Test C pre-/postemergence test; format: in vivo, Digitaria sanguinalis
From the text: as §2

giant foxtail [2] = assay: Test C pre-/postemergence test; format: in vivo, Setaria faberii
From the text: as §2

johnsongrass = assay: Test C pre-/postemergence test; format: in vivo, Sorghum halepense; conditions: for Johnsongrass plant response rating: preemergence, scale 0 (no effect) to 100 (complete control)
From the text: as §2

morningglory = assay: Test C pre-/postemergence test; format: in vivo, Ipomoea coccinea
From the text: as §2

pigweed = assay: Test C pre-/postemergence test; format: in vivo, Amaranthus retroflexus
From the text: as §2

soybean = assay: Test C pre-/postemergence test; format: in vivo, Glycine max; conditions: 125 g ai/ha, preemergence; scale 0 (no effect) to 100 (complete control)
From the text: as §2

rice = assay: Test C flooded paddy test; format: in vivo, Oryza sativa; conditions: Flood
Method in brief: (§3)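 Ratings were visual and made relative to untreated controls after 13 to 15 greenhouse days.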

barnyardgrass = assay: Test C flooded paddy test; format: in vivo, Echinochloa crus-galli; conditions: Flood
Method in brief: as §3

[3] = Postemergence, 500 g ai/ha, 0 is no effect, 100 is complete control
[4] = Preemergence, 125 g ai/ha, 0 no effect, 100 complete control
[5] = 62 g ai/ha, Preemergence, scale 0 to 100
[6] = 125 g ai/ha, preemergence, scale 0 (no effect) to 100 (complete control)
[7] = Preemergence, 31 g ai/ha, scale 0 to 100 (0 no effect, 100 complete control)
[8] = preemergence, 250 g ai/ha, scale 0 (no effect) to 100 (complete control)
[9] = 62 g ai/ha, scale 0 to 100 (0 no effect, 100 complete control)
[10] = 250 g ai/ha, scale 0 to 100, 0 no effect, 100 complete control, 13 to 15 days

For `CCn1nc(C(F)(F)F)c(C[S+]([O-])c2cc(C)cc[n+]2[O-])c1OCC(F)(F)F` (racemic) [Compound 66], the “Plant response rating, Foxtail, Giant” value (giant foxtail [1]; Postemergence, 125 g ai/ha) was 80, the “Foxtail, Giant plant response rating” value (giant foxtail [1]; [3]) was 90 and the “Foxtail, Giant plant response rating” value (giant foxtail [1]; [4]) was 90. The “Plant response rating, Foxtail, Giant” value (giant foxtail [1]; Preemergence, 500 g ai/ha) was 100, the “Plant response rating, Velvetleaf” value (velvetleaf; Postemergence, 125 g ai/ha) was 60 and the “Velvetleaf plant response rating” value (velvetleaf; [3]) was 80. For the same compound, the “Velvetleaf plant response rating” value (velvetleaf; [4]) was 60, the “Plant response rating, Velvetleaf” value (velvetleaf; Preemergence, 500 g ai/ha) was 100 and the “Plant response rating, Wheat” value (wheat; Postemergence, 125 g ai/ha) was 60. For the same compound, the “Wheat plant response rating” value (wheat; [3]) was 70, the “Wheat plant response rating” value (wheat; [4]) was 70 and the “Plant response rating, Wheat” value (wheat; Preemergence, 500 g ai/ha) was 100. For the same compound, the “Plant response rating, Corn” value (corn; Postemergence, 125 g ai/ha) was 50, the “Corn plant response rating” value (corn; [3]) was 80 and the “Corn plant response rating” value (corn; [4]) was 30. The “Plant response rating, Corn” value (corn; Preemergence, 500 g ai/ha) was 80, the “Bromegrass, Downy plant response rating” value (downy brome; [5]) was 90 and the “Bromegrass, Downy plant response rating” value (downy brome; [6]) was 100. The “Plant response rating, Bromegrass, Downy” value (downy brome; [7]) was 70, the “Bromegrass, Downy plant response rating” value (downy brome; [8]) was 100 and the “Bermudagrass plant response rating” value (bermudagrass; 62 g ai/ha, Preemergence, scale 0 to 100 (0 no effect, 100 complete control)) was 100. For the same compound, the “Bermudagrass plant response rating” value (bermudagrass; [6]) was 100, the “Plant response rating, Bermudagrass” value (bermudagrass; [7]) was 100 and the “Bermudagrass plant response rating” value (bermudagrass; [8]) was 100. For the same compound, the “Surinam Grass plant response rating” value (Surinam grass; [5]) was 100, the “Surinam Grass plant response rating” value (Surinam grass; [6]) was 100 and the “Plant response rating, Surinam Grass” value (Surinam grass; [7]) was 100. For the same compound, the “Surinam Grass plant response rating” value (Surinam grass; [8]) was 100, the “Crabgrass, Large plant response rating” value (crabgrass; [5]) was 100 and the “Crabgrass, Large plant response rating” value (crabgrass; [6]) was 100. For the same compound, the “Plant response rating, Crabgrass, Large” value (crabgrass; [7]) was 100, the “Crabgrass, Large plant response rating” value (crabgrass; [8]) was 100 and the “Foxtail, Giant plant response rating” value (giant foxtail [2]; [5]) was 100. For the same compound, the “Foxtail, Giant plant response rating” value (giant foxtail [2]; [6]) was 100, the “Plant response rating, Foxtail, Giant” value (giant foxtail [2]; [7]) was 100 and the “Foxtail, Giant plant response rating” value (giant foxtail [2]; [8]) was 100. The “Johnsongrass plant response rating” value (johnsongrass; 125 g ai/ha) was 80, the “Plant response rating, Johnsongrass” value (johnsongrass; [7]) was 80 and the “Johnsongrass plant response rating” value (johnsongrass; 250 g ai/ha) was 80. The “Morningglory plant response rating” value (morningglory; [5]) was 90, the “Morningglory plant response rating” value (morningglory; [6]) was 90 and the “Plant response rating, Morningglory” value (morningglory; [7]) was 50. The “Morningglory plant response rating” value (morningglory; [8]) was 100, the “Pigweed plant response rating” value (pigweed; [5]) was 30 and the “Pigweed plant response rating” value (pigweed; [6]) was 100. The “Pigweed plant response rating” value (pigweed; [8]) was 100, the “Soybean plant response rating” value (soybean) was 80 and the “Plant response rating, Rice” value (rice; [9]) was 20. For the same compound, the “Plant response rating, Rice” value (rice; [10]) was 70, the “Plant response rating, Barnyardgrass” value (barnyardgrass; [9]) was 10 and the “Plant response rating, Barnyardgrass” value (barnyardgrass; [10]) was 70.
